Laboratory results: patent US9636380B2 (priority 2013, dated 2017)

How the values were obtained:
GABAA receptors = experiment: Whole-cell recording of light-evoked IPSCs (LHb inputs) in DA cells projecting to NAc lateral shell, midbrain slices; format: cell-based, mice; details: 50 μM bath perfusion; LHb input stimulation; n=3; p<0.0001
Protocol: (§1) Mice were deeply anaesthetized with pentobarbital (200 mg/kg ip; Ovation Pharmaceuticals, Deerfield, Ill.). Coronal midbrain slices (250 μm) were prepared after intracardial perfusion with ice-cold artificial cerebrospinal fluid (ACSF) containing elevated sucrose (in mM): 50 sucrose, 125 NaCl, 25 NaHCO3, 2.5 KCl, 1.25 NaH2PO4, 0.1 CaCl2, 4.9 MgCl2, and 2.5 glucose (oxygenated with 95% O2/5% CO2). After 90 min of recovery, slices were transferred to a recording chamber and perfused continuously at 2-4 ml/min with oxygenated ACSF (125 NaCl, 25 NaHCO3, 2.5 KCl, 1.25 NaH2PO4, 11 glucose, 1.3 MgCl2, and 2.5 CaCl2) at ˜30° C. […]
(§2) Labeled DA neurons were visualized with a 40× water-immersion objective on an upright fluorescent microscope (BX51WI, Olympus USA) equipped with infrared-differential interference contrast (IR-DIC) video microscopy and epifluorescence (Olympus USA) for detection of retrobeads. […] A dual lamp house adapter (Olympus USA) was used to switch between fluorescence lamp and LED light source. Excitatory postsynaptic currents (EPSCs) were recorded in whole-cell voltage clamp (Multiclamp 700B, Molecular Devices, CA, USA), filtered at 2 KHz, digitized at 10 KHz (ITC-18 interface, HEKA) and collected on-line using custom Igor Pro software (Wavemetrics, Lake Oswego, Oreg., USA). […]

AMPA receptor = experiment: Whole-cell recording of light-evoked EPSCs (LDT inputs) in DA neurons projecting to NAc lateral shell, midbrain slices; format: cell-based, mice; details: 10 μM bath perfusion; stimulation of LDT fibers; −70 mV
Protocol: as §1, §2

Compound | Effect on light-evoked IPSCs in DA cells projecting to NAc lateral shell (GABAA receptors) | Effect on light-evoked EPSCs in DA neurons projecting to NAc lateral shell (AMPA receptor)
picrotoxin | blocked | –
N#Cc1cc2[nH]c(=O)c(=O)[nH]c2cc1[N+](=O)[O-] [CNQX] | – | blocked
